Each block holds one compound with its values, some of them ahead of it.
How the values were obtained:
Assay type in all cases: cell-based
[1] = target: T1, STING variants (WT) (Homo sapiens, UniProt Q86WV6); assay: SEAP reporter assay in HEK-Blue ISG KO-STING cells transfected with STING WT variant (Method 1); conditions: 24 h
T1 construct: host or cells: HEK-Blue ISG KO-STING cells (Invivogen, hkb-kostg)
Source text: (§1) Example I: STING Variants (WT & HAQ) Activation by Compounds in HEK-Blue™ ISG KO-STING Cells (Method 1)
(§2) Activation of STING can be determined using a SEAP reporter assay in HEK-Blue™ ISG KO-STING cells (Invivogen, cat #hkb-kostg) transfected with plasmids expressing STING variants (WT & HAQ) (referred to WO2017/175147A1). STING variants (WT & HAQ) vector were constructed based on STING-232H vector (Origene, RC208418). GFP vector (VT2069) was bought from Youbio. The detailed protocol as follows: HEK-Blue™ ISG KO-STING cells were harvest and seeding into 96 well plate, the final cell number was 0.8×10^5 cells/well. Transfections were prepared using Lipofectamine 2000 (Invitrogen, Cat #11668-027) following the manufacturer's instructions (Lipo2000:DNA=1:10), 20 ul of transfection suspension containing 1 ng STING vector was added to cell culture plate and incubated at 37° C., 5% CO2 for 24 h. After 24 hours incubation, compounds were added at proper concentration, and the final DMSO concentration was 0.5%. After 24 h incubation, the supernatant was collected to detect SEAP signal using Great EscAPe SEAP chemiluminescence KIT (Clontech, cat #631738) and cells were collected to detect cell viability using CellTiter-Glo Luminescent Cell Viability Assay (Promega, cat #G7573) following the manufacturer's instructions. The data were described by the ratio of the stimulating signal of compounds to 0.5% DMSO.

[2] = target: T2, STING (Homo sapiens, UniProt Q86WV6, G230A/H232R/R293Q/R71H); assay: IFNβ release from THP1 by STING activation (hIFNβ ELISA); conditions: THP1 cells, 24 h, IFN-β in supernatant; inactive = IFNβ not detected at the maximum concentration of compounds
T2 construct: THP1 was purchased from National Collection of Authenticated Cell Cultures (Cat #TCHu 57); host or cells: THP1
Description: Example III: Compound Stimulate THP1 to Release IFNβ by STING Activation
In this assay, activation of STING by compounds was evaluated by detecting their ability to stimulate the secretion of IFN-β (interferon-beta) from THP1. THP1 was purchased from National Collection of Authenticated Cell Cultures (Cat #TCHu 57). The top dose of compounds was setted according to their solubility. First, Compounds were 3 times diluted with medium, 8-dose points in total. The final DMSO concentration was 0.2%. THP1 during the logarithmic phase was resuspended to 2×10^6 cells/ml in assay medium. The THP1-cell suspension was dispensed into a 96-well U bottom plate containing 50 ul of compound diluted in medium. After 24 h incubation at 37° C., 5% CO2, the supernatant was collected. The concentration of IFN-β in the supernatant was measured using a human IFNβ ELISA KIT (R&D, DY814-05). The data was fitted with GraphPad Prism or XLfit to calculate EC50 values.

[3] = target: T3, STING variants (HAQ) (Homo sapiens, UniProt Q86WV6, G230A/R293Q/R71H); assay: SEAP reporter assay in HEK-Blue ISG KO-STING cells transfected with STING HAQ variant (Method 1); conditions: 24 h
T3 construct: host or cells: HEK-Blue ISG KO-STING cells (Invivogen, hkb-kostg)
Source text: as §1, §2

[4] = compound concentration 31.25 μM, SEAP signal ratio to 0.5% DMSO
[5] = compound concentration 115.2 μM
[6] = compound concentration 206.6 μM
[7] = compound concentration 75.95 μM
[8] = compound concentration 153.2 μM
[9] = compound concentration 125.3 μM
[10] = compound concentration 127.7 μM

T3 sequence (Q86WV6 whole entry R71H/G230A/R293Q): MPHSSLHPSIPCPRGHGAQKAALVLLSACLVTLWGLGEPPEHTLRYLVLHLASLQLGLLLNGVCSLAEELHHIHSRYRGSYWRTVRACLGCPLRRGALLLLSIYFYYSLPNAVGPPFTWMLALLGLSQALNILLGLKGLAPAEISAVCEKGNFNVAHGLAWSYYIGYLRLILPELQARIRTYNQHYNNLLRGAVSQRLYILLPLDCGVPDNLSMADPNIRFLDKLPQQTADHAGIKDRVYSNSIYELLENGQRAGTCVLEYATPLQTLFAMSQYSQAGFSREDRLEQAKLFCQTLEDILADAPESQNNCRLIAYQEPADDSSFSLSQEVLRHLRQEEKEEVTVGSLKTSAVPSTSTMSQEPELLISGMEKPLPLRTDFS
T2 sequence (Q86WV6 whole entry R71H/G230A/H232R/R293Q): as the sequence (Q86WV6 whole entry R71H/G230A/R293Q) above, with H232R counted along it

- Fold change related to DMSO control, WT [1, 4]: 3.08 fold
- hIFNβ ELISA (EC50, μM) [2]: inactive
- Fold change related to DMSO control, HAQ [3, 4]: 21.49 fold
Compound: CCn1nc(C)cc1C(=O)Nc1nc2cc(C(N)=O)cc3c2n1[C@@H](CCCNC(=O)OCc1ccccc1)CO3 [Example 1, Benzyl (S)-(3-(7-carbamoyl-2-(1-ethyl-3-methyl-1H-pyrazole-5-carboxamido)-3,4-dihydro-5-oxa-1,2a-diazaacenaphthylen-3-yl)propyl)carbamate]

- Fold change related to DMSO control, WT ([1]; compound concentration 77.9 μM): 2.25 fold
- hIFNβ ELISA (EC50, μM) [2]: inactive
- Fold change related to DMSO control, HAQ ([3]; compound concentration 77.9 μM): 6.46 fold
Compound: CCn1nc(C)cc1C(=O)Nc1nc2cc(C(N)=O)cc3c2n1[C@H](CCCNC(=O)OCc1ccccc1)CO3 [Example 2, Benzyl (R)-(3-(7-carbamoyl-2-(1-ethyl-3-methyl-1H-pyrazole-5-carboxamido)-3,4-dihydro-5-oxa-1,2a-diazaacenaphthylen-3-yl)propyl)carbamate]

- Fold change related to DMSO control, WT [1, 5]: 2.70 fold
- hIFNβ ELISA (EC50, μM) [2]: inactive
- Fold change related to DMSO control, HAQ [3, 5]: 13.64 fold
Compound: CCn1nc(C)cc1C(=O)Nc1nc2cc(C(N)=O)cc3c2n1[C@@H](CCNC(=O)COc1ccccc1)CO3 [Example 7, (S)-2-(1-Ethyl-3-methyl-1H-pyrazole-5-carboxamido)-3-(2-(2-phenoxyacetamido)ethyl)-3,4-dihydro-5-oxa-1,2a-diazaacenaphthylene-7-carboxamide]

- Fold change related to DMSO control, WT ([1]; compound concentration 73.3 μM): 3.47 fold
- hIFNβ ELISA (EC50, μM) [2]: inactive
- Fold change related to DMSO control, HAQ ([3]; compound concentration 73.3 μM): 13.17 fold
Compound: CCn1nc(C)cc1C(=O)Nc1nc2cc(C(N)=O)cc3c2n1[C@@H](CCNC(=O)OCc1cccnc1)CO3 [Example 8, Pyridin-3-ylmethyl (S)-(2-(7-carbamoyl-2-(1-ethyl-3-methyl-1H-pyrazole-5-carboxamido)-3,4-dihydro-5-oxa-1,2a-diazaacenaphthylen-3-yl)ethyl)carbamate]

- Fold change related to DMSO control, WT [1, 6]: 2.86 fold
- hIFNβ ELISA (EC50, μM) [2]: inactive
- Fold change related to DMSO control, HAQ [3, 6]: 21.28 fold
Compound: CCn1nc(C)cc1C(=O)Nc1nc2cc(C(N)=O)cc3c2n1[C@@H](CCNC(=O)OCc1ccccn1)CO3 [Example 9, Pyridin-2-ylmethyl (S)-(2-(7-carbamoyl-2-(1-ethyl-3-methyl-1H-pyrazole-5-carboxamido)-3,4-dihydro-5-oxa-1,2a-diazaacenaphthylen-3-yl)ethyl)carbamate]

- Fold change related to DMSO control, WT ([1]; compound concentration 27.9 μM): 2.26 fold
- hIFNβ ELISA (EC50, μM) [2]: inactive
- Fold change related to DMSO control, HAQ ([3]; compound concentration 27.9 μM): 4.20 fold
Compound: CCn1nc(C)cc1C(=O)Nc1nc2cc(C(N)=O)cc3c2n1CCO3 [Example 11, 2-(1-Ethyl-3-methyl-1H-pyrazole-5-carboxamido)-3,4-dihydro-5-oxa-1,2a-diazaacenaphthylene-7-carboxamide]

- Fold change related to DMSO control, WT ([1]; compound concentration 52.6 μM): 3.31 fold
- EC50 [2]: > 8.9 µM
- Fold change related to DMSO control, HAQ ([3]; compound concentration 52.6 μM): 27.37 fold
Compound: CCn1nc(C)cc1C(=O)Nc1nc2cc(C(N)=O)cc3c2n1[C@@H](C)CO3 [Example 12]

- Fold change related to DMSO control, WT [1, 7]: 3.68 fold
- hIFNβ ELISA (EC50, μM) [2]: inactive
- Fold change related to DMSO control, HAQ [3, 7]: 20.00 fold
Compound: CCn1nc(C)cc1C(=O)Nc1nc2cc(C(N)=O)cc3c2n1[C@@H](CCNC(=O)/C=C/c1ccccc1)CO3 [Example 15, (S)-3-(2-Cinnamamidoethyl)-2-(1-ethyl-3-methyl-1H-pyrazole-5-carboxamido)-3,4-dihydro-5-oxa-1,2a-diazaacenaphthylene-7-carboxamide]

- Fold change related to DMSO control, WT ([1]; compound concentration 42.8 μM): 3.00 fold
- hIFNβ ELISA (EC50, μM) [2]: inactive
- Fold change related to DMSO control, HAQ ([3]; compound concentration 42.8 μM): 15.06 fold
Compound: CCn1nc(C)cc1C(=O)Nc1nc2cc(C(N)=O)cc3c2n1C[C@@H](C)O3 [Example 16, (R)-2-(1-Ethyl-3-methyl-1H-pyrazole-5-carboxamido)-4-methyl-3,4-dihydro-5-oxa-1,2a-diazaacenaphthylene-7-carboxamide]

- Fold change related to DMSO control, WT [1, 8]: 1.58 fold
- hIFNβ ELISA (EC50, μM) [2]: inactive
- Fold change related to DMSO control, HAQ [3, 8]: 17.64 fold
Compound: CCn1nc(C)cc1C(=O)Nc1nc2cc(C(N)=O)cc3c2n1[C@@H](CCCCNC(=O)OCc1cccnc1)CO3 [Example 18, Pyridin-3-ylmethyl (S)-(4-(7-carbamoyl-2-(1-ethyl-3-methyl-1H-pyrazole-5-carboxamido)-3,4-dihydro-5-oxa-1,2a-diazaacenaphthylen-3-yl)butyl)carbamate]

- Fold change related to DMSO control, WT [1, 9]: 1.65 fold
- hIFNβ ELISA (EC50, μM) [2]: inactive
- Fold change related to DMSO control, HAQ [3, 9]: 20.80 fold
Compound: CCn1nc(C)cc1C(=O)Nc1nc2cc(C(N)=O)cc3c2n1[C@@H](CCCCNC(=O)OCc1ccccn1)CO3 [Example 19, Pyridin-2-ylmethyl (S)-(4-(7-carbamoyl-2-(1-ethyl-3-methyl-1H-pyrazole-5-carboxamido)-3,4-dihydro-5-oxa-1,2a-diazaacenaphthylen-3-yl)butyl)carbamate]

- Fold change related to DMSO control, WT [1, 10]: 1.43 fold
- hIFNβ ELISA (EC50, μM) [2]: inactive
- Fold change related to DMSO control, HAQ [3, 10]: 16.22 fold
Compound: CCn1nc(C)cc1C(=O)Nc1nc2cc(C(N)=O)cc3c2n1[C@@H](CCCCNC(=O)OCc1ccncc1)CO3 [Example 20, Pyridin-4-ylmethyl (S)-(4-(7-carbamoyl-2-(1-ethyl-3-methyl-1H-pyrazole-5-carboxamido)-3,4-dihydro-5-oxa-1,2a-diazaacenaphthylen-3-yl)butyl)carbamate]

- Fold change related to DMSO control, WT ([1]; compound concentration 25 μM): 3.02 fold
- hIFNβ ELISA (EC50, μM) [2]: inactive
- Fold change related to DMSO control, HAQ ([3]; compound concentration 25 μM): 95.64 fold
Compound: CCn1nc(C)cc1C(=O)Nc1nc2cc(C(N)=O)cc3c2n1[C@@H](C)CCO3 [Example 22, (S)-1-(1-Ethyl-3-methyl-1H-pyrazole-5-carboxamido)-9-methyl-8,9-dihydro-7H-6-oxa-2,9a-diazabenzo[cd]azulene-4-carboxamide]

- Fold change related to DMSO control, WT ([1]; compound concentration 25 μM): 2.62 fold
- hIFNβ ELISA (EC50, μM) [2]: inactive
- Fold change related to DMSO control, HAQ ([3]; compound concentration 25 μM): 81.27 fold
Compound: CCC[C@H]1COc2cc(C(N)=O)cc3nc(NC(=O)c4cc(C)nn4CC)n1c23 [Example 23, (S)-2-(1-Ethyl-3-methyl-1H-pyrazole-5-carboxamido)-3-propyl-3,4-dihydro-5-oxa-1,2a-diazacenaphthylene-7-carboxamide]

- Fold change related to DMSO control, WT ([1]; compound concentration 25 μM): 2.33 fold
- hIFNβ ELISA (EC50, μM) [2]: inactive
- Fold change related to DMSO control, HAQ ([3]; compound concentration 25 μM): 65.85 fold
Compound: CCn1nc(C)cc1C(=O)Nc1nc2cc(C(N)=O)cc3c2n1[C@@H](Cc1ccccc1)CO3 [Example 24, (S)-3-Benzyl-2-(1-ethyl-3-methyl-1H-pyrazole-5-carboxamido)-3,4-dihydro-5-oxa-1,2a-diazaacenaphthylene-7-carboxamide]

- Fold change related to DMSO control, WT ([1]; compound concentration 25 μM): 2.24 fold
- EC50 [2]: > 16.7 µM
- Fold change related to DMSO control, HAQ ([3]; compound concentration 25 μM): 56.18 fold
Compound: CCn1nc(C)cc1C(=O)Nc1nc2cc(C(N)=O)cc3c2n1[C@@H](C(C)C)CO3 [Example 25, (S)-2-(1-Ethyl-3-methyl-1H-pyrazole-5-carboxamido)-3-isopropyl-3,4-dihydro-5-oxa-1,2a-diazaacenaphthylene-7-carboxamide]

- Fold change related to DMSO control, WT ([1]; compound concentration 25 μM): 2.00 fold
- EC50 [2]: 11.4 µM
- Fold change related to DMSO control, HAQ ([3]; compound concentration 25 μM): 63.91 fold
Compound: CC[C@H]1COc2cc(C(N)=O)cc3nc(NC(=O)c4cc(C)nn4CC)n1c23 [Example 26, (S)-3-Ethyl-2-(1-ethyl-3-methyl-1H-pyrazole-5-carboxamido)-3,4-dihydro-5-oxa-1,2a-diazaacenaphthylene-7-carboxamide]

Reference: patent US20240287093A1, “HIGH ACTIVITY STING PROTEIN AGONIST” (ADLAI NORTYE BIOPHARMA CO., LTD., priority 2018, published 2024)
